In patent publication US12162848B2, “Inhibitors of protein tyrosine phosphatase, compositions, and methods of use” (BRISTOL-MYERS SQUIBB COMPANY, priority 2022, dated 2024) one finds EC50 and IC50 data, which are given here for 17 molecules.

For assay [1], the system named is B16-F10 cells. The assay can be described thus: Cell proliferation assay (CellTiter-Glo) in IFN-gamma treated B16-F10 cells. Type of assay: cell-based. The note with it: 120 h, mouse IFN-gamma 10 ng/mL, read-out: PTPN2 Prolif 5d B16F10 EC50. For orientation: Cellular ATP, detected with luciferase, serves as a proxy for viable cell number.
Assay [2] concerns phosphorylated STAT1 protein levels in B16-F10 cells. Briefly: Phospho-STAT1 (Tyr701) HTRF assay in IFN-gamma treated B16-F10 cells. The format is cell-based. The note with it: mouse IFN-gamma 100 ng/mL, 1 hour, read-out: pSTAT1 HTRF B16 EC50. Put shortly: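 Mouse B16-F10 cells, 10,000/well, pretreated 1 h with compound (0.15% DMSO), then stimulated with mouse IFN-gamma at 100 ng/mL final for 1 h at 37 C. Phospho-STAT1 (Tyr701) measured by HTRF.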
A general note: In TR-FRET formats the signal depends on donor and acceptor labels being close together.

In assay [3] the target is T1, PTPN2 enzyme (Homo sapiens, UniProt P17706).
T1 sequence (P17706 1-415): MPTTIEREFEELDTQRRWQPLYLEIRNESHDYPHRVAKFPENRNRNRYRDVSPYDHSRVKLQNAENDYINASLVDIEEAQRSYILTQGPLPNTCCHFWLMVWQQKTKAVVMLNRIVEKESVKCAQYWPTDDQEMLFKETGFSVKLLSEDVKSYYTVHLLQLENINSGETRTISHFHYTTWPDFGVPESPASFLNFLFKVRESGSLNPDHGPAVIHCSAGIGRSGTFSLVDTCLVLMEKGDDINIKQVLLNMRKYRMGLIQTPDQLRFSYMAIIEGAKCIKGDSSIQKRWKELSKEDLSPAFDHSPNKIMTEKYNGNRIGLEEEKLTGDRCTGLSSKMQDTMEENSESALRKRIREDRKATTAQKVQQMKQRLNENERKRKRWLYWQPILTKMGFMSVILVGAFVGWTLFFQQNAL
The assay can be described thus: PhosphoSens PTPN2 biochemical assay. The note with it: substrate AQT0264 20 μM, room temperature; read-out: PTPN2 BCHEM IC50. Put shortly: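 PhosphoSens fluorescence format with 20 μM final AQT0264 substrate and […] in 50 mM HEPES pH 7.5, 500 μM EGTA, […], 0.01% Brij-35, 1% glycerol, 1 mM DTT, 0.2 mg/mL BSA. Compounds in 3-fold dilution series; progress curves read (ex 360/em 480 nm) every 71 s for 1 h at room temperature.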

The term EC50 denotes the midpoint of the concentration-response curve. The term IC50 denotes the midpoint of a concentration-inhibition curve.

In the case of `CC1(C)CCC[C@H](NCc2cc(O)c(N3CC(=O)NS3(=O)=O)c(F)c2)C1` [EXAMPLE 66, (S)-5-(4-(((3,3-dimethylcyclohexyl)amino)methyl)-2-fluoro-6-hydroxyphenyl)-1,2,5-thiadiazolidin-3-one 1,1-dioxide], the EC50 in assay [1] was 0.772 µM; in assay [2] it was 0.782 µM. In addition, the IC50 in assay [3] came to 0.042 µM.

For the molecule `O=C1CN(c2c(O)cc(CN[C@H]3CCCOC3)cc2F)S(=O)(=O)N1` [EXAMPLE 67, (S)-5-(2-fluoro-6-hydroxy-4-(((tetrahydro-2H-pyran-3-yl)amino)methyl)phenyl)-1,2,5-thiadiazolidin-3-one 1,1-dioxide], the EC50 is 1.67 µM in assay [1] and 2.69 µM in assay [2]. The IC50 in assay [3] is 0.126 µM.

Turning to `CC(=O)N1CCC[C@H](NCc2cc(O)c(N3CC(=O)NS3(=O)=O)c(F)c2)C1` [EXAMPLE 71, 5-[4-[[[(3S)-1-acetyl-3-piperidyl]amino]methyl]-2-fluoro-6-hydroxy-phenyl]-1,1-dioxo-1,2,5-thiadiazolidin-3-one], the EC50 amounted to 1.89 µM in assay [1] and 2.91 µM in assay [2]. Also, the IC50 in assay [3] came to 0.025 µM.

As to `CS(=O)(=O)N1CCC[C@@H](NCc2cc(O)c(N3CC(=O)NS3(=O)=O)c(F)c2)C1` [EXAMPLE 72, 5-[2-fluoro-6-hydroxy-4-[[[(3R)-1-methylsulfonyl-3-piperidyl]amino]methyl]phenyl]-1,1-dioxo-1,2,5-thiadiazolidin-3-one], the results for the EC50 in assay [1] and in assay [2] were 4.69 µM and 3.56 µM, respectively. The IC50 in assay [3] came out at 0.054 µM.

As to `O=C1CN(c2c(O)cc(CN[C@H]3CCCN(S(=O)(=O)C4CC4)C3)cc2F)S(=O)(=O)N1` [EXAMPLE 73, 5-[4-[[[(3S)-1-cyclopropylsulfonyl-3-piperidyl]amino]methyl]-2-fluoro-6-hydroxy-phenyl]-1,1-dioxo-1,2,5-thiadiazolidin-3-one], the concentration for a half-maximal effect (EC50) in assay [1] is 9.84 µM; in assay [2] it was 7.8 µM. Also, the IC50 in assay [3] was 0.01 µM.

As for `O=C1CN(c2c(O)cc(CN[C@@H]3CCCN(S(=O)(=O)C4CC4)C3)cc2F)S(=O)(=O)N1` [EXAMPLE 74, 5-[4-[[[(3R)-1-cyclopropylsulfonyl-3-piperidyl]amino]methyl]-2-fluoro-6-hydroxy-phenyl]-1,1-dioxo-1,2,5-thiadiazolidin-3-one], the EC50 in assay [1] came out at 5.65 µM; in assay [2], 11 µM. In addition, the concentration for half-maximal inhibition (IC50) in assay [3] was found to be 0.017 µM.

In the case of `CS(=O)(=O)N1CCC[C@H](NCc2cc(O)c(N3CC(=O)NS3(=O)=O)c(F)c2)C1` [EXAMPLE 75, 5-[2-fluoro-6-hydroxy-4-[[[(3S)-1-methylsulfonyl-3-piperidyl]amino]methyl]phenyl]-1,1-dioxo-1,2,5-thiadiazolidin-3-one], the EC50 in assay [1] turned out to be 2.19 µM; in assay [2], 3.22 µM. Also, the half-inhibitory concentration (IC50) in assay [3] was 0.037 µM.

`O=C(O)CC(=O)N1CCC[C@H](NCc2cc(O)c(N3CC(=O)NS3(=O)=O)c(F)c2)C1` [EXAMPLE 76, 3-[(3S)-3-[[3-fluoro-5-hydroxy-4-(1,1,4-trioxo-1,2,5-thiadiazolidin-2-yl)phenyl]methylamino]-1-piperidyl]-3-oxo-propanoic acid]: the EC50 in assay [1] and in assay [2] was at least 15 µM each time. Further, the IC50 in assay [3] was 0.012 µM.

Regarding `O=C1CN(c2c(O)cc(CNc3cc(F)ccc3Cl)cc2F)S(=O)(=O)N1` [EXAMPLE 80, 5-[4-[(2-chloro-5-fluoro-anilino)methyl]-2-fluoro-6-hydroxy-phenyl]-1,1-dioxo-1,2,5-thiadiazolidin-3-one], the EC50 in assay [1] and in assay [2] was at least 15 µM throughout. For the same molecule, in assay [3], the IC50 amounted to 0.05 µM.

Regarding `CC(C)CCN1CCN(c2cc(O)c(N3CC(=O)NS3(=O)=O)c(F)c2)CC1` [EXAMPLE 83, 5-(2-fluoro-6-hydroxy-4-(4-isopentylpiperazin-1-yl)phenyl)-1,2,5-thiadiazolidin-3-one 1,1-dioxide], the EC50 in assay [1] and in assay [2] was at least 15 µM each time. Besides, the IC50 in assay [3] was 0.896 µM.

On to `NC1CCN(c2cc(O)c(N3CC(=O)NS3(=O)=O)c(F)c2)CC1` [EXAMPLE 84, 5-(4-(4-aminopiperidin-1-yl)-2-fluoro-6-hydroxyphenyl)-1,2,5-thiadiazolidin-3-one 1,1-dioxide], for which the EC50 in assay [1] and in assay [2] was at least 15 µM throughout. For the same molecule, the IC50 in assay [3] was 0.745 µM.

For `O=C1CN(c2c(O)cc(N3CCNCC3)cc2F)S(=O)(=O)N1` [EXAMPLE 85, 5-(2-fluoro-6-hydroxy-4-(piperazin-1-yl)phenyl)-1,2,5-thiadiazolidin-3-one 1,1-dioxide], the EC50 in assay [1] was at least 15 µM; in assay [2], 5.48 µM. Besides, the IC50 in assay [3] amounted to 0.682 µM.

As for `COCCN1CCN(c2cc(O)c(N3CC(=O)NS3(=O)=O)c(F)c2)CC1` [EXAMPLE 86, 5-(2-fluoro-6-hydroxy-4-(4-(2-methoxyethyl)piperazin-1-yl)phenyl)-1,2,5-thiadiazolidin-3-one 1,1-dioxide], the concentration for a half-maximal effect (EC50) in assay [1] and in assay [2] was at least 15 µM in each case. Moreover, the concentration for half-maximal inhibition (IC50) in assay [3] was found to be 0.336 µM.

As to `CN(C)C1CCN(c2cc(O)c(N3CC(=O)NS3(=O)=O)c(F)c2)CC1` [EXAMPLE 87, 5-(4-(4-(dimethylamino)piperidin-1-yl)-2-fluoro-6-hydroxyphenyl)-1,2,5-thiadiazolidin-3-one 1,1-dioxide], the EC50 in assay [1] and in assay [2] was at least 15 µM each time. The IC50 in assay [3] was 0.318 µM.

In the case of `CC(C)CCN1CCC(Nc2cc(O)c(N3CC(=O)NS3(=O)=O)c(F)c2)CC1` [EXAMPLE 89, 5-(2-fluoro-6-hydroxy-4-((1-isopentylpiperidin-4-yl)amino)phenyl)-1,2,5-thiadiazolidin-3-one 1,1-dioxide], the EC50 in assay [1] and in assay [2] was at least 15 µM in each case. In assay [3], the half-maximal inhibitory concentration (IC50) was 0.757 µM.

With `COCCN1CCC(Nc2cc(O)c(N3CC(=O)NS3(=O)=O)c(F)c2)CC1` [EXAMPLE 90, 5-(2-fluoro-6-hydroxy-4-((1-(2-methoxyethyl)piperidin-4-yl)amino)phenyl)-1,2,5-thiadiazolidin-3-one 1,1-dioxide], the EC50 in assay [1] and in assay [2] was at least 15 µM throughout. In addition, the IC50 in assay [3] was determined as 2.13 µM.

Regarding `CN1CCC(c2ccc(O)c(N3CC(=O)NS3(=O)=O)c2F)CC1` [EXAMPLE 106, 5-(2-fluoro-6-hydroxy-3-(1-methylpiperidin-4-yl)phenyl)-1,2,5-thiadiazolidin-3-one 1,1-dioxide], the EC50 in assay [1] and in assay [2] was at least 15 µM in each case. In assay [3], the IC50 is 4.47 µM.
